Experiments:
[1] = Michaelis constant (Km) was determined; format: ADME
[2] = Catalytic constant from Lineweaver-Burke analysis for antibody catalyzed retrograde aldol reaction with the compound; format: ADME

SMILES | Km [1] | k cat [2]
CC(=O)CC(O)/C=C/c1ccc(C(F)(F)F)cc1 (configuration not stated) | 239 µM | 0.00227 s⁻¹
CC(=O)CC(O)/C=C/c1ccccc1 (configuration not stated) | 415 µM | 0.00145 s⁻¹
CC(=O)CC(O)/C=C/c1ccc(N(C)C)cc1 (configuration not stated) | 1250 µM | 0.042 s⁻¹
COc1ccc(/C=C/C(O)CC(C)=O)cc1 (configuration not stated) | 522 µM | 0.0067 s⁻¹
CC(=O)CC(O)/C=C/c1ccc([N+](=O)[O-])cc1 (configuration not stated) | 140 µM | 0.0013 s⁻¹
CC(=O)CC(O)/C=C/c1ccc(Cl)cc1 (configuration not stated) | 324 µM | 0.00282 s⁻¹
